Assay results as given in patent US20160331853A1, “COMPOSITIONS FOR RADIOTHERAPY AND USES THEREOF” (The Trustees of Columbia University in the City of New York, priority 2014, published 2016).
Where “and” joins values, the source holds several entries; their conditions need not be identical. Equal entries are not always repeated.

Experiments:
[1] = Example 2: Avidin and Avidin-Rhodamine binding to talc after PBS and 0.2% EDTA washes, fluorescent microscope; conditions: 100 mg talc; 3x PBS, 3x 0.2% EDTA washes
Experimental: The resulting mixtures were then washed with PBS and then washed with 0.2% EDTA.
3. Mix 1 mL of 100 μM of Avidin with 500 μL of 30.3 μM of Avidin Rhodamine (keep lights off).
4. […] Mix well to bring the dry talc powder to evenly distributed reaction solution.
8. Place tubes on the rotator and incubate overnight at 4° C.
5. Continue to wash all “b” labeled tubes with 0.2% EDTA. Wash 3× in 0.5 mL EDTA.
7. View slides under fluorescent microscope.

[2] = Example 3: binding Avidin to 100 mg sterile talc, Pierce 660 nm total protein assay of supernatants and washes
Experimental: Collect the supernatant liquid from two tubes containing the two highest concentrations of Avidin at varying points.
4. Run total protein assay using Pierce microplate kit and read plate in plate reader.
6. Wash all tubes in PBS two times, collecting the supernatant liquid from each wash ONLY from the two highest concentrations of Avidin (tubes labeled 1-2b, 1-2c, and 2-2b, 2-2c).
7. Continue to wash 3× with 0.5 mL of 0.2% EDTA.
8. Collect the supernatant from each wash and transfer to the new tubes only from the original tubes with the highest concentration of Avidin (50 μM and 5 μM). Collect only the FIRST wash with EDTA solution for the other tubes.
10. Run the total protein assay (see e.g., Example 1) using all the collected supernatant liquid.
The shape is similar to a nugget, and the calculations will substitute it's geometry with spheres. […] Less than 5% is below that range, and above that range.

[3] = Example 4: amount of Avidin saturating 100 mg talc, Pierce total protein assay of supernatant; format: binding
From the text: 2. Collect the supernatant from each tube but discard the pellet.
3. Run the Pierce total protein assay using the following dilutions of the collected supernatant.
4. Read plate in the plate reader (absorbance assay) at 660 nm wavelength.

[4] = Example 12: hot and cold Avidin mix binding to talc, repeat with controls, OD 450 nm
Experimental: The following Example repeated the hot/cold experiment shown in Example 10, with the addition of multiple controls.
1. Prepare 10 mL of 40 ng/mL (or […]) HRP Avidin in 1×PBS using 5.75 mg/mL or 32.5 μM of HRP Avidin stock solution.
6. Weigh 8 mg of Avidin (cold Avidin), then resuspend it in 2 mL of PBS that contains 40 ng/mL of “hot” Avidin. So the solution will now be 40 ng/mL hot Avidin+4 mg/mL of Cold Avidin. Label this tube as #1.
7. Make 3 mL of 1:10 dilution of solution in Tube #1 and make labeled Tube #2 containing 2.7 mL of 40 ng/mL in Hot Avidin solution in PBS+300 μL of Tube #1. The solution in the tube will contain 40 ng/mL of Hot Avidin+400 μg of Cold Avidin.
8. Make 1:2 dilution of solution in Tube #2 using as a diluted solvent of […] of Hot Avidin in PBS. Added 1 mL of Hot Avidin+1 mL of Tube #2. The final concentration will be 40 ng/mL of Hot Avidin+200 μg/mL of Cold Avidin. Label this tube as Tube #3.
9. Make 1:2 dilution of solution in Tube #3, using as a solvent of 40 ng/mL Hot Avidin in PBS Prepare 2 mL of solution: 1 mL of 40 ng/mL of Hot Avidin in PBS+1 mL of Tube #3 The final concentration will be 40 ng/mL of hot Avidin+100 μg/mL of Cold Avidin. Label this tube as Tube #4.
3. Wash the plate 3× with 300 μL PBS containing 10% FBS.
7. Add 100 μL of Stop Solution 2.
8. Read absorbance at 450 nm using the plate reader.

[5] = Example 14: talc bound to HRP- and cold Avidin, 48 hours incubation in PBS containing 10% FBS, OD 450 nm; format: physicochemical; conditions: 48 hours in PBS containing 10% FBS
Experimental: Purpose: To check how strong the conjugate of hot/cold Avidin to Talc is. […] Absorbance will be checked twice—once before washing with PBS containing 10% FBS and after 48 hours, washing will be done.
1. Prepare 10 mL of 40 ng/mL (or 260 μM) HRP Avidin in 1×PBS using 5.75 mg/mL or 32.5 uM of HRP Avidin stock solution.
6. Weigh 8 mg of Avidin (cold Avidin), then resuspend it in 2 mL of PBS containing 40 ng/mL of “hot” Avidin. So the solution will now be 40 ng/mL hot Avidin+4 mg/mL of Cold Avidin. Label this tube as #1.
14. […] Two identical microplates need to be set up, labeling them as: plate#I and plate#2. Design of the plate:
3. Wash both plates 3× with 300 μL PBS.
5. […] Mix constantly, cover plate with Aluminum foil.
6. Add 100 μL of TMB to samples in plate #1.
8. After incubation with TMB is over, add 100 μL of Stop Solution 2.
9. Read absorbance at 450 nm using the plate reader.
3. Collect 100 μL supernatant from samples except native controls and load on same plate.
4. Wash plate except supernatant samples 3× with 300 μL PBS.
6. Add 100 μL of TMB to all samples in plate#2.
8. After incubation with TMB is over add 100 μL of Stop Solution 2.

[6] = Coupling of avidin to talc, binding capacity (general description)

- AVIDIN in supernatant after incubation ([2]; 198.4 μg Avidin + 100 mg talc): 13.7 μg/0.5 ml
- Avidin binded to talc ([2]; 198.4 μg Avidin + 100 mg talc): 184.7 µg
- Saturation of AVIDIN to the combine surface of 100 mg talc ([2]; 198.4 μg Avidin added): 2.48 μg/cm^2
- AVIDIN in supernatant after incubation ([2]; 198.4 μg Avidin in 0.5 ml + 100 mg talc): 27.4 µg/mL
- Amount of Avidin removed by wash ([2]; 198.4 μg, 1st wash with EDTA): 15.8 µg/mL
- Amount of Avidin removed by wash ([2]; 198.4 μg, 1st wash with PBS): 31.4 µg/mL
- Amount of Avidin removed by wash ([2]; 198.4 μg, 2nd wash with EDTA): 19.8 µg/mL
- Amount of Avidin removed by wash ([2]; 198.4 μg, 2nd wash with PBS): 27.6 µg/mL
- Amount of Avidin removed by wash ([2]; 198.4 μg, 3rd wash with EDTA): 13 µg/mL
- Amount of Avidin removed by wash ([2]; 198.4 μg, 3rd wash with PBS): 32.7 µg/mL
- AVIDIN in supernatant after incubation ([2]; 1650.3 μg Avidin + 100 mg talc): 1185 μg/0.5 ml
- Avidin binded to talc ([2]; 1650.3 μg Avidin + 100 mg talc): 465.3 µg
- Saturation of AVIDIN to the combine surface of 100 mg talc ([2]; 1650.3 μg Avidin added): 6.25 μg/cm^2
- AVIDIN in supernatant after incubation ([2]; 1650.3 μg Avidin in 0.5 ml + 100 mg talc): 2370 µg/mL
- Amount of Avidin removed by wash ([2]; 1650.3 μg, 1st wash with EDTA): 13.2 µg/mL
- Amount of Avidin removed by wash ([2]; 1650.3 μg, 1st wash with PBS): 307.4 µg/mL
- Amount of Avidin removed by wash ([2]; 1650.3 μg, 2nd wash with EDTA): 12.3 µg/mL
- Amount of Avidin removed by wash ([2]; 1650.3 μg, 2nd wash with PBS): 67.3 µg/mL
- Amount of Avidin removed by wash ([2]; 1650.3 μg, 3rd wash with EDTA): 13.2 µg/mL
- Amount of Avidin removed by wash ([2]; 1650.3 μg, 3rd wash with PBS): 40.3 µg/mL
- saturation of talc particles ([2]; highest concentration of Avidin (50 μM), 100 mg talc): not fully saturated
- Efficiency of binding, OD ([4]; 1 mg talc, Cold Avidin only 100 ug/mL): 0.31 OD
- Efficiency of binding, OD ([4]; 1 mg talc, Cold Avidin only 200 ug/mL): 0.27 OD
- Efficiency of binding, OD ([4]; 1 mg talc, Cold Avidin only 400 ug/mL): 0.3 OD
- Efficiency of binding, OD ([4]; 1 mg talc, Cold Avidin only 4 mg/mL): 0.33 OD
- Efficiency of binding, OD ([4]; 5 mg talc, Cold Avidin only 100 ug/mL): 1.38 OD
- Efficiency of binding, OD ([4]; 5 mg talc, Cold Avidin only 200 ug/mL): 1.4 OD
- Efficiency of binding, OD ([4]; 5 mg talc, Cold Avidin only 400 ug/mL): 1.01 OD
- Efficiency of binding, OD ([4]; 5 mg talc, Cold Avidin only 4 mg/mL): 1.23 OD
- avidin bound by talc [6]: > 2 nanograms of avidin per mg of talc
Substance: Avidin: Avidin from egg white (Sigma, Cat. A9275), unlabeled (cold) Avidin
- binding to talc after washing [1]: remained bound to talc despite multiple washes
- release of Avidin from talc surface during washes ([2]; 3x PBS, 3x 0.2% EDTA): Only first wash removed quantifiable amounts of Avidin from talc surface
- Avidin binded with talc ([3]; 330 μg/ml Avidin added): 110.4 µg/mL
- Avidin in supernatant ([3]; 330 μg/ml Avidin added): 219.6 μg, ml
- Avidin per talc surface ([3]; 330 μg/ml Avidin added): 1.5 μg/cm2
- Avidin binded with talc ([3]; 3300 μg/ml Avidin added): 2452.7 µg/mL
- Avidin in supernatant ([3]; 3300 μg/ml Avidin added): 847.3 μg, ml
- Avidin per talc surface ([3]; 3300 μg/ml Avidin added): 33.0 μg/cm2 and 33 μg/cm2
- Avidin binded with talc ([3]; 6600 μg/ml Avidin added): 4631.5 µg/mL
- Avidin in supernatant ([3]; 6600 μg/ml Avidin added): 1968.5 μg, ml
- Avidin per talc surface ([3]; 6600 μg/ml Avidin added): 62.3 μg/cm2
- Avidin binded with talc ([3]; 13200 μg/ml Avidin added): 7952.7 µg/mL
- Avidin in supernatant ([3]; 13200 μg/ml Avidin added): 5247.3 μg, ml
- Avidin per talc surface ([3]; 13200 μg/ml Avidin added): 106.9 μg/cm2
- Avidin binded with talc ([3]; 19800 μg/ml Avidin added): 12166.7 µg/mL
- Avidin in supernatant ([3]; 19800 μg/ml Avidin added): 7633.3 μg, ml
- Avidin per talc surface ([3]; 19800 μg/ml Avidin added): 163.5 μg/cm2
- saturation of talc particles ([3]; increasing concentrations of Avidin): not fully saturated
- stability of binding of Avidin to talc [5]: unchanged at 48 hours
